Test results from patent US7173004B2, “Macrocyclic isoquinoline peptide inhibitors of hepatitis C virus” (Bristol-Myers Squibb Company, priority 2003, dated 2007).

System: HCV replicon (HCV 1b-377-neo replicon cells, Huh7)
Assay: HCV replicon cell-based FRET assay
Conditions: Hepatitis C virus, Huh-7
Procedure: HCV Replion assays were utilized in the present invention, and were prepared, conducted and validated as follows:
An HCV replicon whole cell system was established as described by Lohmann V, Korner F, Koch J, Herian U, Theilmann L, Bartenschlager R., Science 285(5424): 110–3 (1999). This system enabled us to evaluate the effects of our HCV Protease compounds on HCV RNA replication. Briefly, using the HCV strain 1B sequence described in the Lohmann paper (Assession number: AJ238799), an HCV cDNA was synthesized by Operon Technologies, Inc. (Alameda, Calif.), and the full-length replicon was then assembled in plasmid pGem9zf(+) (Promega, Madison, Wis.) using standard molecular biology techniques. The replicon consists of (i) the HCV 5′ UTR fused to the first 12 amino acids of the capsid protein, (ii) the neomycin phosphotransferase gene (neo), (iii) the IRES from encephalomyocarditis virus (EMCV), and (iv) HCV NS3 to NS5B genes and the HCV 3′ UTR. Plasmid DNAs were linearized with ScaI and RNA transcripts were synthesized in vitro using the T7 MegaScript transcription kit (Ambion, Austin, Tex.) according to manufacturer's directions. To generate cell lines, 4×10^6 Huh-7 cells (kindly provided by R. Bartenschlager and available from Health Science Research Resources Bank, Japan Health Sciences Foundation) were electroporated (GenePulser System, Bio-Rad) with 10 microgram(“μg”) of RNA transcript and plated into 100-mm dishes. After 24 h, selective media containing 1.0 milligrams/milliliter (“mg/ml”) G418 was added and media was changed every 3 to 5 days. Approximately 4 weeks after electroporation, small colonies were visible which were isolated and expanded for further analysis. These cell lines were maintained at 37° C., 5% CO2, 100% relative humidity in DMEM (Cat# 11965-084) Gibco-BRL, Rockville, Md., with 10% heat inactivated calf serum (Sigma), 10 ml of 100× penicillin/streptomycin (Cat# 15140-122) Gibco-BRL, Rockville, Md., Geneticin (Cat# 10131-027) Gibco-BRL, Rockville, Md. at 1 mg/ml. One of the cell lines (deposited as ATCC Accession No. PTA-4583 in the American Type Culture Collection) which had approximately 3,000 copies of HCV replicon RNA/cell was used for development of the assay (HCV 1b-377-neo replicon cells).
Huh7 cells, constitutively expressing the HCV replicon, were grown in Dulbecco's Modified Eagle Media (DMEM) containing 10% Fetal calf serum (FCS) and 1 mg/ml G418 (Gibco-BRL). Cells were seeded the night before (1.5×10^4 cells/well) in 96-well tissue-culture sterile plates. Compound and no compound controls were prepared in DMEM containing 4% FCS, 1:100 Penicillin/Streptomysin, 1:100 L-glutamine and 5% DMSO in the dilution plate (0.5% DMSO final concentration in the assay). Compound/DMSO mixes were added to the cells and incubated for 4 days at 37° C. After 4 days, cells were first assessed for cytotoxicity using alamar Blue (Trek Diagnotstic Systems) for a CC50 reading. The toxicity of compound (CC50) was determined by adding 1/10th volume of alamar Blue to the media incubating the cells. After 4 hr, the fluorescence signal from each well was read, with an excitation wavelength at 530 nm and an emission wavelength of 580 nm, using the Cytofluor Series 4000 (Perspective Biosystems). Plates were then rinsed thoroughly with Phosphate-Buffered Saline (PBS) (3 times 150 μl). The cells were lysed with 25 μl of a lysis assay reagent containing an HCV protease substrate (5× cell Luciferase cell culture lysis reagent (Promega #E153A) diluted to 1× with distilled water, NaCl added to 150 mM final, the FRET peptide diluted to 10 μM final from a 2 mM stock in 100% DMSO). The HCV protease substrate (FRET peptide; AnaSpec, Inc. cat #22991, described by Taliani et al. in Anal. Biochem. 240(2):60–67 (1996)) contains a fluorescence donor, EDANS, near one end of the peptide and an acceptor, DABCYL, near the other end. […]

Row | SMILES | EC50
1 | COC(=O)N[C@H]1CCCCC/C=C\[C@@H]2C[C@@]2(C(=O)NS(=O)(=O)C2CC2)NC(=O)[C@@H]2C[C@@H](Oc3nccc4ccccc34)CN2C1=O [Compound 12, [4-Cyclopropanesulfonylaminocarbonyl-18-(isoquinolin-1-yloxy)-2,15-dioxo-3,16-diaza-tricyclo[14.3.0.0^4,6]nonadec-7-en-14-yl]-carbamic acid methyl ester] | < 50 nM
2 | CCC1(S(=O)(=O)NC(=O)C23CC2C=CCCCOC(C)C(NC(=O)OC(C)C)C(=O)N2CC(Oc4nccc5cc(OC)ccc45)CC2C(=O)N3)CC1 (stereo not shown) [Compound 72] | 50 to 500 nM
3 | CC(C)(OC(=O)NC1CCCCCC=CC2CC2(C(=O)NS(=O)(=O)C2CC2)NC(=O)C2CC(Oc3nccc4ccccc34)CN2C1=O)C(F)(F)F (stereo not shown) [Compound 51] | < 50 nM
4 | COc1ccc2c(OC3CC4C(=O)NC5(C(=O)NS(=O)(=O)C6CC6)CC5C=CCOCCCC(NC(=O)NC(C)(C)C)C(=O)N4C3)nccc2c1 (stereo not shown) [Compound 34] | < 50 nM
5 | COc1ccc2c(OC3CC4C(=O)NC5(C(=O)O)CC5C=CCOCCCC(NC(=O)OC(C)(C)C)C(=O)N4C3)nccc2c1 (stereo not shown) [Compound 27, 14-tert-Butoxycarbonylamino-18-(6-methoxy-isoquinolin-1-yloxy)-2,15-dioxo-10-oxa-3,16-diaza-tricyclo[14.3.0.0^4,6]nonadec-7-ene-4-carboxylic acid] | 500 to 5000 nM
6 | CCC1(S(=O)(=O)NC(=O)C23CC2C=CCCC[S+]([O-])CC(NC(=O)OC(C)(C)C)C(=O)N2CC(Oc4nccc5cc(OC)ccc45)CC2C(=O)N3)CC1 (stereo not shown) [Compound 47] | < 50 nM
7 | CC(C)(C)OC(=O)N[C@H]1CCCCC/C=C\[C@@H]2C[C@@]2(C(=O)NS(=O)(=O)C2(Cc3ccccc3)CC2)NC(=O)[C@@H]2C[C@@H](Oc3nccc4ccccc34)CN2C1=O [Compound 5, [4-(1-Benzyl-cyclopropanesulfonylaminocarbonyl)-18-(isoquinolin-1-yloxy)-2,15-dioxo-3,16-diaza-tricyclo[14.3.0.0^4,6]nonadec-7-en-14-yl]-carbamic acid tert-butyl ester] | 50 to 500 nM
8 | COc1c(NC2CCCCCC=CC3CC3(C(=O)NS(=O)(=O)C3CC3)NC(=O)C3CC(Oc4nccc5ccccc45)CN3C2=O)c(=O)c1=O (stereo not shown) [Compound 21] | 50 to 500 nM
9 | CCC1(S(=O)(=O)NC(=O)C23CC2C=CCOCCCC(NC(=O)NC2CCCC2)C(=O)N2CC(Oc4nccc5cc(OC)ccc45)CC2C(=O)N3)CC1 (stereo not shown) [Compound 38] | < 50 nM
10 | O=C(NC1CCCCCC=CC2CC2(C(=O)NS(=O)(=O)C2CC2)NC(=O)C2CC(Oc3nccc4ccccc34)CN2C1=O)OC1CCCC1 (stereo not shown) [Compound 20] | < 50 nM
11 | CS(=O)(=O)NC1CCCCCC=CC2CC2(C(=O)NS(=O)(=O)C2CC2)NC(=O)C2CC(Oc3nccc4ccccc34)CN2C1=O (stereo not shown) [Compound 25] | 500 to 5000 nM
12 | CCC1(S(=O)(=O)NC(=O)C23CC2C=CCCCOC(C)C(NC(=O)NC2CCCC2)C(=O)N2CC(Oc4nccc5cc(OC)ccc45)CC2C(=O)N3)CC1 (stereo not shown) [Compound 73] | 50 to 500 nM
13 | COc1ccc2c(OC3CC4C(=O)NC5(C(=O)NS(=O)(=O)C6(C)CC6)CC5C=CCCCOC(C)C(NC(=O)OC(C)C)C(=O)N4C3)nccc2c1 (stereo not shown) [Compound 68] | 50 to 500 nM
14 | CC(=O)NC1CCCCCC=CC2CC2(C(=O)NS(=O)(=O)C2CC2)NC(=O)C2CC(Oc3nccc4ccccc34)CN2C1=O (stereo not shown) [Compound 26] | 50 to 500 nM
15 | COc1ccc2c(OC3CC4C(=O)NC5(C(=O)NS(=O)(=O)C6(C)CC6)CC5C=CCCCOC(C)C(NC(=O)NC5CCCC5)C(=O)N4C3)nccc2c1 (stereo not shown) [Compound 69] | < 50 nM
16 | CC(C)(CCl)OC(=O)NC1CCCCCC=CC2CC2(C(=O)NS(=O)(=O)C2CC2)NC(=O)C2CC(Oc3nccc4ccccc34)CN2C1=O (stereo not shown) [Compound 52] | < 50 nM
